Test results as given in patent US11034679B2 (priority 2017, dated 2021).
Read-outs that look alike come from different tables or passages of the source.

Legend:
MOR [1] = biological target: T1, MOR (Homo sapiens, UniProt P35372); experiment: cell-based; parameters: host or cells: CHO-K1 OPRM1 β-arrestin-2 cells; conditions: for Emax: read-out: % Efficacy (maximum efficacy based on DAMGO maximum stimulation)
Target sequence in this assay (P35372 whole entry): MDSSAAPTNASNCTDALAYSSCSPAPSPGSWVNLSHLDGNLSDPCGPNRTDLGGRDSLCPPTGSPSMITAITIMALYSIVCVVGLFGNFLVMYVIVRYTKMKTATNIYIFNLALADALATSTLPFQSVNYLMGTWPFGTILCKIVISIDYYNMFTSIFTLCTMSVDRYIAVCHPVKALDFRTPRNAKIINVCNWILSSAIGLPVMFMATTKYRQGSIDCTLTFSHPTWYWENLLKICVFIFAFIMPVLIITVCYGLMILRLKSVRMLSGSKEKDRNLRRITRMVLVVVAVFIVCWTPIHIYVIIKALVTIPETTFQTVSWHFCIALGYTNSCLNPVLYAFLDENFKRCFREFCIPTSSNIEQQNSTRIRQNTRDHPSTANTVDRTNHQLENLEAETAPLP
Target sequence in this assay (P32121 whole entry partner): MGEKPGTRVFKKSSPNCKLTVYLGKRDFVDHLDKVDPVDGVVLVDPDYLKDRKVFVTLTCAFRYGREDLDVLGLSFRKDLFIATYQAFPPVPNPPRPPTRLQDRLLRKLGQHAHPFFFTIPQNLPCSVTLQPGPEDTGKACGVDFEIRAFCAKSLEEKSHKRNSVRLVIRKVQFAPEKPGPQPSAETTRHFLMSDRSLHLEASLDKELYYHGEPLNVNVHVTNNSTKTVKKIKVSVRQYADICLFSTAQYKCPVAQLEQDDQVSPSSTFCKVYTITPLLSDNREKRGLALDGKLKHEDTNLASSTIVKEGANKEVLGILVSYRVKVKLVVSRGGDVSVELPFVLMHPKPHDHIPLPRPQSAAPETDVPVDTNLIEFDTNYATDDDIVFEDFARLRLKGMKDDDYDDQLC

MOR [2] = biological target: T1, MOR; experiment: cell-based; assay type: cell-based; parameters: expressed in transfected cells; host or cells: CHO cells stably expressing MOR; conditions: for MOR potency relative to kurkinorin: cAMP assay, Table 1
Target sequence in this assay (P35372 whole entry): as the sequence (P35372 whole entry) above

mice [3] = experiment: hot water tail-flick tolerance evaluation; assay type: in vivo; conditions: daily i.p. for 9 days, 10 mg/kg morphine or 5 mg/kg compound 3.46, latency 30 min after dose
mice [4] = experiment: accelerating rotarod performance assay; conditions: preliminary data, compared to morphine
[5] = CHO cells expressing MOR, read-out: EC50 (inhibition of cAMP accumulation)

Row | Compound | Bias Factor (MOR [1]) | EC50 (MOR [1]) | Emax (MOR [1]) | EC50 (MOR [2]; [5]) | melting point | antinociceptive effects (% maximal possible effect) on daily administration (mice [3]) | effects on motor coordination (mice [4]) | MOR potency relative to kurkinorin (MOR [2]) | EC50 (MOR [2]) | Emax (MOR [2]; CHO)
1 | COC(=O)[C@@H]1C=C(OC(=O)c2ccc3ccoc3c2)C(=O)[C@H]2[C@@]1(C)CC[C@H]1C(=O)O[C@H](c3ccoc3)C[C@]21C [Entry 1, Methyl (2S,4aR,6aR,7R,10aR,10bR)-9-((benzofuran-6-carbonyl)oxy)-2-(furan-3-yl)-6a,10b-dimethyl-4,10-dioxo-1,4,4a,5,6,6a,7,10,10a,10b-decahydro-2H-benzo[f]isochromene-7-carboxylate] | 2.62 | 40 nM | 90% | 1.5 ± 0.6 nM | – | – | – | – | – | –
2 | COC(=O)[C@@H]1C=C(OC(=O)c2ccc(CO)cc2)C(=O)[C@H]2[C@@]1(C)CC[C@H]1C(=O)O[C@H](c3ccoc3)C[C@]21C [Entry 3, Methyl (2S,4aR,6aR,7R,10aR,10bR)-2-(furan-3-yl)-9-((4-(hydroxymethyl)benzoyl)oxy)-6a,10b-dimethyl-4,10-dioxo-1,4,4a,5,6,6a,7,10,10a,10b-decahydro-2H-benzo[f]isochromene-7-carboxylate] | 0.14 | 14 nM | 81% | 0.03 ± 0.01 nM | 115 to 118 °C | maintained antinociceptive efficacy from days 1-9 | significantly less effects on motor coordination than morphine | about two orders of magnitude more potent than kurkinorin | – | –
3 | COC(=O)[C@@H]1C=C(OC(=O)c2cccc(C(N)=O)c2)C(=O)[C@H]2[C@@]1(C)CC[C@H]1C(=O)O[C@H](c3ccoc3)C[C@]21C | – | > 25000 nM | 0% | – | – | – | – | – | > 10000 nM | 0%
4 | C[C@@H](NC(=O)[C@@H](N)Cc1ccc(O)cc1)C(=O)NCC(=O)N(C)[C@@H](Cc1ccccc1)C(=O)NCCO [DAMGO, reference compound] | 1.0 | – | – | – | – | – | – | – | – | –
5 | COC(=O)[C@@H]1C=C(OC(=O)c2ccc3c(c2)C(=O)NC3)C(=O)[C@H]2[C@@]1(C)CC[C@H]1C(=O)O[C@H](c3ccoc3)C[C@]21C [Entry 8, (2S,4aR,6aR,7R,10aR,10bR)-2-(furan-3-yl)-7-(methoxycarbonyl)-6a,10b-dimethyl-4,10-dioxo-1,4,4a,5,6,6a,7,10,10a,10b-decahydro-2H-benzo[f]isochromen-9-yl 3-oxoisoindoline-5-carboxylate] | 0.65 | 190 nM | 76% | 2.2 ± 0.2 nM | – | – | – | – | – | –
6 | COC(=O)[C@@H]1C=C(OC(=O)c2ccc3occc3c2)C(=O)[C@H]2[C@@]1(C)CC[C@H]1C(=O)O[C@H](c3ccoc3)C[C@]21C [Entry 2, Methyl (2S,4aR,6aR,7R,10aR,10bR)-9-((benzofuran-5-carbonyl)oxy)-2-(furan-3-yl)-6a,10b-dimethyl-4,10-dioxo-1,4,4a,5,6,6a,7,10,10a,10b-decahydro-2H-benzo[f]isochromene-7-carboxylate] | 1.21 | 490 nM | 84% | – | – | – | – | – | 9 ± 2 nM | –
7 | COC(=O)[C@@H]1C=C(OC(=O)c2ccc(C(N)=O)cc2)C(=O)[C@H]2[C@@]1(C)CC[C@H]1C(=O)O[C@H](c3ccoc3)C[C@]21C [Entry 6] | 1.57 | 10 nM | 119% | – | – | – | – | almost an order of magnitude more potent than kurkinorin | 0.19 ± 0.03 nM | –
8 | COCc1ccc(C(=O)OC2=C[C@@H](C(=O)OC)[C@]3(C)CC[C@H]4C(=O)O[C@H](c5ccoc5)C[C@]4(C)[C@H]3C2=O)cc1 [Entry 5, Methyl (2S,4aR,6aR,7R,10aR,10bR)-2-(furan-3-yl)-9-((4-(methoxymethyl)benzoyl)oxy)-6a,10b-dimethyl-4,10-dioxo-1,4,4a,5,6,6a,7,10,10a,10b-decahydro-2H-benzo[f]isochromene-7-carboxylate] | 1.98 | 360 nM | 74% | 13 ± 3 nM | – | – | – | – | – | –
9 | COC(=O)[C@@H]1C=C(OC(=O)c2cccc(CO)c2)C(=O)[C@H]2[C@@]1(C)CC[C@H]1C(=O)O[C@H](c3ccoc3)C[C@]21C [Entry 4, Methyl (2S,4aR,6aR,7R,10aR,10bR)-2-(furan-3-yl)-9-((3-(hydroxymethyl)benzoyl)oxy)-6a,10b-dimethyl-4,10-dioxo-1,4,4a,5,6,6a,7,10,10a,10b-decahydro-2H-benzo[f]isochromene-7-carboxylate] | 0.87 | 150 nM | 75% | 2.42 ± 0.07 nM | 104 to 106 °C | – | – | – | – | –
10 | COC(=O)[C@@H]1C=C(OC(=O)c2ccc3c(c2)CNC3=O)C(=O)[C@H]2[C@@]1(C)CC[C@H]1C(=O)O[C@H](c3ccoc3)C[C@]21C [Entry 9, (2S,4aR,6aR,7R,10aR,10bR)-2-(furan-3-yl)-7-(methoxycarbonyl)-6a,10b-dimethyl-4,10-dioxo-1,4,4a,5,6,6a,7,10,10a,10b-decahydro-2H-benzo[f]isochromen-9-yl 1-oxoisoindoline-5-carboxylate] | 0.81 | 260 nM | 88% | 3.2 ± 0.7 nM | – | – | – | – | – | –
